Laboratory results published in article PMC9127186, “Molecular Basis Underlying Hepatobiliary and Renal Excretion of Phenolic Acids of Salvia miltiorrhiza Roots (Danshen)” (Frontiers in Pharmacology, 2022).

Columns and labels:
human OAT1 = biological target: T1, human OAT1 (Homo sapiens, UniProt Q4U2R8); design: method as in Kang et al. (2021); details: ref Kang et al. (2021); cited from earlier work
T1 sequence (Q4U2R8 1-563): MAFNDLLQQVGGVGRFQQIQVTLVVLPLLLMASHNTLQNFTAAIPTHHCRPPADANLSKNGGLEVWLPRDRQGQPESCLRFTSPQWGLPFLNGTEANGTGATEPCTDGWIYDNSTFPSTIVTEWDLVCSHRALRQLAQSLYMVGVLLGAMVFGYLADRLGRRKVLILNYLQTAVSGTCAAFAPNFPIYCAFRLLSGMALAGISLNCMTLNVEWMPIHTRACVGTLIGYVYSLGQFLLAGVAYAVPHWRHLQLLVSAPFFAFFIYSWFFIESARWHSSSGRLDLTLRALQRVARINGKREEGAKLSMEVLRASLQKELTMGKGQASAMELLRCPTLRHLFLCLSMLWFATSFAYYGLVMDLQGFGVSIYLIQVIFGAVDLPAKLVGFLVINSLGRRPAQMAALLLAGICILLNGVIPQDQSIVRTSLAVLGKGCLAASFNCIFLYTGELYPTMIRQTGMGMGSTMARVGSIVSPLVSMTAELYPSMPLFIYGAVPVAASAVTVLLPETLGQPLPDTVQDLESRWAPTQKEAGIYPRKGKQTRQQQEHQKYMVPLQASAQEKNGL

human OCT3 = biological target: T2, human OCT3 (Homo sapiens, UniProt O75751)
T2 sequence (O75751 1-556): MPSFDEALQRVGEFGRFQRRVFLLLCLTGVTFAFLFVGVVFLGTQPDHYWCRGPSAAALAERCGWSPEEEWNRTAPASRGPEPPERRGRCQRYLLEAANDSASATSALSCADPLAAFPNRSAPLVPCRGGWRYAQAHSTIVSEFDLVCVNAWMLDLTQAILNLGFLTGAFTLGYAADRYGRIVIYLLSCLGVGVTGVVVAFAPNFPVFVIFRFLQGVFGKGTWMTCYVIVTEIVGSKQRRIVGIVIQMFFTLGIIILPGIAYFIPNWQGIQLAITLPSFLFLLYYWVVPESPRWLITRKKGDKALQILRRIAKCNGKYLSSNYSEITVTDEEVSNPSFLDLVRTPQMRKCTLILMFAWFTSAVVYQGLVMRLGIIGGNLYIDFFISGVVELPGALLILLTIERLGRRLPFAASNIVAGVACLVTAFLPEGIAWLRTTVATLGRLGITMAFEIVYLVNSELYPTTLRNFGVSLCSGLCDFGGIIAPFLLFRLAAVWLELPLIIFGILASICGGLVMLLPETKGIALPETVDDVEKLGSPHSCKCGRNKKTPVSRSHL

OATP1B1 = tested on: OATP1B1; design: method as in Li et al., 2019; details: ref Li et al., 2019; read-out: half maximum inhibitory concentration (IC50) for OATP1B1; cited from earlier work

Compound: O=C(/C=C/c1ccc(O)c(O)c1)O[C@H](Cc1ccc(O)c(O)c1)C(=O)O [Rosmarinic acid, rosmarinic acid]
- substrate of human OAT1 (human OAT1): substrate

Compound: O=C(/C=C/c1ccc(O)c(O)c1/C=C/c1ccc(O)c(O)c1)O[C@H](Cc1ccc(O)c(O)c1)C(=O)O [Salvianolic acid A, salvianolic acid A]
- TransportTC/TransportMC ratio (net transport ratio) (human OCT3): 1.31 ± 0.09

Compound: salvianolic acid B
- IC50 (OATP1B1): 38 µM
